Measured values reported in US4482566A, “Substituted aminoalkylbenzene type lower acylamides” (Teikoku Hormone Mfg. Co., Ltd., priority 1979, dated 1984).

How the values were obtained:
[1] = test system: gastric acid secretion induced by histamine; experiment: Inhibitory action against the gastric acid secretion induced by histamine (perfused stomach, anesthetized rats); type: in vivo; details: Rattus norvegicus, 1 h; male Donryu rats, urethane anesthesia; compound injected before histamine dihydrochloride 5 mg/kg i.v.; acid output during 60 min; read-out: ED50, dose to inhibit 50% of acid output of the control
Method: Inhibitory action of a test compound against the gastric acid secretion induced by histamine was determined according to the method of Ghosh and Schild (M. N. Ghosh and H. O. Schild: Br. J. Pharmacol. 13, 54, 1958) with some modifications. Male Donryu rats weighing 200±10 g were deprived of food for 24 hr prior to the experiments, with water ad lib. Under the anesthesia with 1.2 g/kg of subcutaneous urethane, trachea and cervical vein were cannulated. With midline opening, the duodenum immediately below the junction with pylorus was incised and after the stomach was flashed with saline for several times, the polyethylene tube was inserted into the pylorus through the incision, and ligated with surrounding tissues keeping the blood vessels intact. The polyvinyl tube was inserted into the mouth up to the forestomach through the esophagus and ligated at the cervical level. Saline solution kept at 35° C. was perfused through the polyvinyl tube at the rate of 1 ml/min, and the perfusate was collected through the polyethylene tube of the pylorus. The perfusate was collected for 30 min and was titrated by 0.01N NaOH with phenolphthalein as an indicator to obtain a total acid output(mEq). Subsequently, the perfusate was collected for every 30 min. After the acid output became constant, the stomach was perfused for further 60 min. After that, in the control group, 0.1 ml of saline per 100 g of body weight was intravenously injected, 10 min later 5 mg/kg of histamine dihydrochloride was injected intravenously. The perfusate for 60 min after histamine injection was collected and determined the acidity. The amount of acid output during 60 min after histamine injection subtracted that for 60 min before histamine was regarded as the acid output response to histamine. In the test groups, following the injection of three compounds (A), (B) and (C) instead of saline, 5 mg/kg of histamine dihydrochloride was injected and acid output was determined. Decreased ratio of the acid output to the control was calculated as the response to the test compound. […]

Acute toxicity = details: mouse, in vivo, po, SLC-ddY male mice of aging 4 weeks
Method: To test the acute toxicity of each compound (A), (B) and (C), LD50 was determined using SLC-ddY male mice of aging 4 weeks.

histamine H2 receptor = biological target: T1, histamine H2 receptor (Cavia porcellus, UniProt P47747); experiment: Blocking action on histamine H2 receptor in vitro (positive chronotropic effect of histamine in spontaneously beating atria); details: negative logarithm of concentration required to shift dose-response of histamine to the right by 2-fold; guinea pig atria; read-out: pA2 (converted)
T1 construct: spontaneously beating atria of guinea pig in vitro; from tissue; host or cells: spontaneously beating guinea pig atria
Method: Histamine H2 receptor blocking activity of the compound was determined by obtaining the dose-response relationship of the positive chronotropic effect of histamine in spontaneously beating atria of guinea pig in vitro, in the absence and in the presence of a test compound. […] E. J. Ariens. Molecular Pharmacology, vol. 1, 153-156 (1964), Academic Press, New York).

T1 sequence (P47747 whole entry): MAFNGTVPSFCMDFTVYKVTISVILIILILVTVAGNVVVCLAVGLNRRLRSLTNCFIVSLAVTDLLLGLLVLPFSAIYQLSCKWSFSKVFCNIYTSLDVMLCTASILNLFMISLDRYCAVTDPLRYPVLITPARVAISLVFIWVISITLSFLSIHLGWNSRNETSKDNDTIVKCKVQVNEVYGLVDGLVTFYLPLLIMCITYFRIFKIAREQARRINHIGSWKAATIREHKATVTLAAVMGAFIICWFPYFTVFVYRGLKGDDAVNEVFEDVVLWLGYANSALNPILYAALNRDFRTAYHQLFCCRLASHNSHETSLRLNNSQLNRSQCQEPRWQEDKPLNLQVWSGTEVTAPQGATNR

Row | Kb (histamine H2 receptor) [nM] | SMILES | ED50 [1] [mg/kg] | LD50 (Acute toxicity) [mg/kg]
1 | – | O=C(NCCCOc1cccc(CN2CCCC2)c1)c1cccnc1 [A] | 1.25 | > 1000
2 | 191 | O=C(NCCCOc1cccc(CN2CCCC2)c1)c1ccccc1 [Example 2] | – | –
3 | 138 | O=C(NCCCOc1cccc(CN2CCCC2)c1)c1cccs1 [Example 3] | – | –
4 | 81.3 | COC(=O)c1ccc(C(=O)NCCCOc2cccc(CN3CCCC3)c2)cc1 [Example 5] | – | –
5 | 100 | O=C(NCCCOc1cccc(CN2CCCC2)c1)c1ccc([N+](=O)[O-])cc1 [Example 7] | – | –
6 | 186 | O=C(NCCCOc1cccc(CN2CCCC2)c1)c1cc(-c2ccccc2)on1 [Example 8] | – | –
7 | – | CC(=O)NCCCOc1cccc(CN2CCCC2)c1 [compound 4, 3-(3-acetamidopropoxy)-1-(1-pyrrolidinylmethyl)benzene] | 1.65 | > 1000
8 | – | O=CNCCCOc1cccc(CN2CCCC2)c1 [compound 6] | 0.84 | > 1000

Row | SMILES | Kb (histamine H2 receptor) [nM] | ED50 [1] [mg/kg] | LD50 (Acute toxicity) [mg/kg]
9 | O=C(NCCCOc1cccc(CN2CCCC2)c1)c1cccnc1 [Example 1] | 129 | – | –
10 | CC(=O)NCCCOc1cccc(CN2CCCC2)c1 [Example 4] | 195 | – | –
11 | O=CNCCCOc1cccc(CN2CCCC2)c1 [Example 6] | 170 | – | –
